Structures can show the parent of a compound that is named as a salt.
How the values were obtained:
[1] = tested on: male diet-induced obese F344/Jcl rats; experiment: Anorectic effect in male diet-induced obese F344/Jcl rats; assay type: in vivo, rat; settings: 5 mg/mL suspension at 2 mL/kg, two administrations, food intake for 2 days vs control group; for inhibition in vivo at 5000 µg/mL, 10 mg/kg: Rattus norvegicus, po, 48 h, read-out: Food intake suppression rate (%)
Description: Evaluation of Anorectic Effect Using Male Diet-Induced Obese F344/Jcl Rats
Male diet-induced obese F344/Jcl rats (44-50 weeks old) fed with a high-fat diet (D12451: Research Diets) from 5 weeks old were used. From before the start of experiment, the rats were singly housed, given a powder high-fat diet (D12451M: Research Diets), and habituated to oral administration with tap water. The food intake from the evening of the day before the start of experiment to the next morning was measured, and the rats were grouped based on both the food intake and the body weight of the previous day. In the evening of the day of the start of experiment and the next day, 0.5% methylcellulose solution was orally administered to the control group, and 0.5% methylcellulose suspension (5 mg/mL) of the test compound was orally administered to the compound administration group at 2 mL/kg (6 per group for both control group and compound administration group). The food intake for 2 days from the initial administration was measured. The food intake inhibition rate of each compound administration group to the control group was calculated.

human MCHR1 = target: T1, human MCHR1 (Homo sapiens, UniProt Q99705); experiment: MCH receptor 1 antagonistic activity, Ca2+ mobilization assay; assay type: cell-based; settings: CHO, test compound 0.1 μM; human MCHR1-expressing CHO cells (clone #4); ligand MCH(4-19) 2 nM; read-out: Inhibitory rate % (0.1 μM)
T1 construct: expressed in transfected cells; host or cells: CHO dhfr- cells, clone #4
T1 sequence (Q99705 whole entry): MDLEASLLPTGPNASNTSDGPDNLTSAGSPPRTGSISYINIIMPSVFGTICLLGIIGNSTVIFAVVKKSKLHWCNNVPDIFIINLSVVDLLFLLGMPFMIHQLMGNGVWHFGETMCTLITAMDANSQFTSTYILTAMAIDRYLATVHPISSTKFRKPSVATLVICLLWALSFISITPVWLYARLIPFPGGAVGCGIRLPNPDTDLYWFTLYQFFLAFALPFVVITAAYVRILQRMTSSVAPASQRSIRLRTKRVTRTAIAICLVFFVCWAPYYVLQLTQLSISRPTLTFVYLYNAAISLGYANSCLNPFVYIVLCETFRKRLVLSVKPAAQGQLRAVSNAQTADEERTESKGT
Procedure, shortened: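 CHO dhfr− cells stably expressing human MCHR1 (clone #4) were used in a fluorometric Ca2+ mobilization assay. Test compounds were run at 0.1 μM, with antagonism expressed as percent inhibition.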

[2] = target: T2, human MCH receptor 1 (MCHR1) (Homo sapiens, UniProt Q99705); experiment: human MCH receptor 1 (MCHR1) competitive binding assay with [125I]-MCH(4-19); settings: test compound 0.1 μM, human MCHR1-expressing CHO cell membrane fraction, read-out: Binding inhibition rate % (0.1 μM)
T2 construct: expressed in transfected cells; host or cells: CHO cell clone 57 (membrane fraction)
T2 sequence (Q99705 whole entry): as above
Procedure, shortened: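 Percent binding inhibition by 0.1 μM test compound, corrected for nonspecific binding defined with unlabeled MCH(1-19), is read by scintillation after filtration onto PEI-treated GF/C filters. The reaction runs 1 hr at room temperature with [125I]-MCH(4-19) and human MCHR1-CHO cell membranes in Tris-HCl pH 7.5 buffer containing EDTA and protease inhibitors.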

HepG2 cells = experiment: PLsis (phospholipidosis) inducing potential, NBD-PE uptake; assay type: cell-based; settings: 24 hr exposure, relative value to 10 μM Amiodarone, maximum value per unit concentration
Description: Evaluation of PLsis Inducing Potential
DMEM medium, L-glutamine, penicillin-streptomycin, pyruvic acid, and N-(7-nitrobenz-2-oxa-1,3-diazol-4-yl)-1,2-hexadecanoyl-sn-glycero-3-phosphoethanolamine triethylammonium salt (NBD-PE) were purchased from Invitrogen Corporation. As bovine serum albumin (BSA), a product of Thermo Trace Ltd. (Melbourne, Australia) was used, and as Amiodarone, a product of ICN (Costa Mesa, Calif.) was used. A test compound was used in the form of a 10 mM DMSO solution.
FBS was added at a final concentration of 5 vol % to DMEM medium supplemented with L-glutamine, pyruvic acid and penicillin-streptomycin and subjected to the experiment. Culture was performed using 5% carbon dioxide gas-95% air as a gas phase in a CO2 incubator at 37° C. HepG2 cells were suspended in a culture medium at 50×10^4 cells/mL, plated in a 96 well plate at 50 μL/well and precultured for 24 hr. After preculture, the culture medium was removed, a culture medium containing 60 μM NBD-PE was added at 50 μL/well, and a culture medium containing 0.6 μM or 20 μM test compounds were each added at 50 μL/well to HepG2 cells, and the cells were cultured for 24 hr. As a positive control, Amiodarone was used at a final concentration of 10 μM.
After exposure to the test compound for 24 hr, the fluorescence intensity (Ex. 485 nm, Em. 538 nm) of NBD-PE uptaken by the cells was measured by a fluorometer. The measurement value with addition of 0 μM test compound solution was subtracted as a blank, a relative value to the measurement 5 value with addition of 10 μM Amiodarone was calculated, and the maximum value per unit concentration of the test compound was obtained as a phospholipidosis (PLsis) inducing potential.

inhibition at 0.1 µM (human MCHR1) [%] | inhibition at 0.1 µM [2] [%] | Compound | inhibition in vivo at 5000 µg/mL, 10 mg/kg [1] [%] | PLsis inducing potential (HepG2 cells) | Food intake suppression rate (%) ([1]; oral, hydrochloride)
99 | 89 | Cn1c(C2CC2)nc2ccc(-n3ccc(OCc4ccc(Cl)cc4)cc3=O)cc21 [Example 10, 4-((4-Chlorobenzyl)oxy)-1-(2-cyclopropyl-1-methyl-1H-benzimidazol-6-yl)pyridin-2(1H)-one] | 58.1 |  | 
90 | 53 | Cn1c(CC2CC2)nc2ccc(-n3ccc(OCc4ccc(F)cc4)cc3=O)cc21 [Example 15, 1-(2-(Cyclopropylmethyl)-1-methyl-1H-benzimidazol-6-yl)-4-((4-fluorobenzyl)oxy)pyridin-2(1H)-one] | 45.4 |  | 
 | 78 | Cn1c(C2CC2)nc2ccc(-n3ccc(OCc4ccc(Cl)c(F)c4)cc3=O)cc21 [Example 131, 4-((4-Chloro-3-fluorobenzyl)oxy)-1-(2-cyclopropyl-1-methyl-1H-benzimidazol-6-yl)pyridin-2(1H)-one] | 44.3 |  | 
 | 91 | Cn1c(C2CC2)nc2ccc(-n3ccc(OCc4csc(Cl)c4)cc3=O)cc21 [Example 143, 4-((5-Chloro-3-thienyl)methoxy)-1-(2-cyclopropyl-1-methyl-1H-benzimidazol-6-yl)pyridin-2(1H)-one] | 39.4 | 1.6 | 
90 | 48 | Cc1c(C2CC2)nc2ccc(-n3ccc(OCc4ccc(F)s4)cc3=O)cn12 [Example 156, 1-(2-Cyclopropyl-3-methylimidazo[1,2-a]pyridin-6-yl)-4-((5-fluorothiophen-2-yl)methoxy)pyridin-2(1H)-one] |  | 2.0 | 
105 | 83 | Cc1c(C2CC2)nc2ccc(-n3ccc(OCc4ccc(C(F)(F)F)s4)cc3=O)cn12 [Example 158, 1-(2-Cyclopropyl-3-methylimidazo[1,2-a]pyridin-6-yl)-4-((5-(trifluoromethyl)thiophen-2-yl)methoxy)pyridin-2(1H)-one] | 20.3 |  | 
106 | 89 | CCc1nc2ccc(-n3ccc(OCc4csc(Cl)c4)cc3=O)cc2n1C [Example 226, 4-((5-Chloro-3-thienyl)methoxy)-1-(2-ethyl-1-methyl-1H-benzimidazol-6-yl)pyridin-2(1H)-one] |  | 2.1 | 
85 | 66 | Cn1c(C2CC2)nc2ccc(-n3ccc(OCc4csc(C(F)(F)F)c4)cc3=O)cc21 [Example 252, 1-(2-Cyclopropyl-1-methyl-1H-benzimidazol-6-yl)-4-((5-(trifluoromethyl)-3-thienyl)methoxy)pyridin-2(1H)-one] | 30.8 |  | 
97 | 71 | CCc1nc2ccc(-n3ccc(OCc4cc(C(F)(F)F)cs4)cc3=O)cc2n1C [Example 276, 1-(2-Ethyl-1-methyl-1H-benzimidazol-6-yl)-4-((4-(trifluoromethyl)-2-thienyl)methoxy)pyridin-2(1H)-one] | 57.9 |  | 
95 | 47 | Cn1c(C2CC2)nc2ccc(-n3ccc(OCc4csc(C(F)F)n4)cc3=O)cc21 [Example 287, 1-(2-Cyclopropyl-1-methyl-1H-benzimidazol-6-yl)-4-((2-(difluoromethyl)-1,3-thiazol-4-yl)methoxy)pyridin-2(^1H)-one] |  |  | 
87 | 40 | CCc1nc2ccc(-n3ccc(OCc4csc(C(F)F)n4)cc3=O)cc2n1C [Example 288, 4-((2-(Difluoromethyl)-1,3-thiazol-4-yl)methoxy)-1-(2-ethyl-1-methyl-1H-benzimidazol-6-yl)pyridin-2(1H)-one] |  |  | 
98 | 47 | Cc1c(C2CC2)nc2ccc(-n3ccc(OCc4ccc(F)cn4)cc3=O)cn12 [Example 291, 1-(2-Cyclopropyl-3-methylimidazo[1,2-a]pyridin-6-yl)-4-((5-fluoropyridin-2-yl)methoxy)pyridin-2(1H)-one hydrochloride] |  |  | 

Second part, the compound before the results:

Compound | inhibition at 0.1 µM (human MCHR1) [%] | inhibition at 0.1 µM [2] [%] | inhibition in vivo at 5000 µg/mL, 10 mg/kg [1] [%] | PLsis inducing potential (HepG2 cells) | Food intake suppression rate (%) ([1]; oral, hydrochloride)
Cn1c(C2CC2)nc2ccc(-n3ccc(OCc4ccccc4)cc3=O)cc21 [Example 9, 4-(Benzyloxy)-1-(2-cyclopropyl-1-methyl-1H-benzimidazol-6-yl)pyridin-2(1H)-one] | 100 | 72 | 14.8 |  | 
CCc1nc2ccc(-n3ccc(OCc4ccc(Cl)s4)cc3=O)cc2n1C [Example 49, 4-[(5-Chlorothiophen-2-yl)methoxy]-1-(2-ethyl-1-methyl-1H-benzimidazol-6-yl)pyridin-2(1H)-one] |  |  | 29.3 |  | 
CCc1nc2ccc(-n3ccc(OCc4csc(Cl)c4)cc3=O)cc2n1C [Example 51, 4-[(5-Chlorothiophen-3-yl)methoxy]-1-(2-ethyl-1-methyl-1H-benzimidazol-6-yl)pyridin-2(1H)-one] |  |  | 50 |  | 
Cn1c(C2CC2)nc2ccc(-n3ccc(OCc4ccc(F)c(F)c4)cc3=O)cc21 [Example 115, 1-(2-Cyclopropyl-1-methyl-1H-benzimidazol-6-yl)-4-((3,4-difluorobenzyl)oxy)pyridin-2(1H)-one] |  | 82 | 32 | 1.8 | 
Cc1c(C2CC2)nc2ccc(-n3ccc(OCc4ccc(C(F)(F)F)s4)cc3=O)cn12 [Example 160, 1-(2-Cyclopropyl-3-methylimidazo[1,2-a]pyridin-6-yl)-4-((5-(trifluoromethyl)thiophen-2-yl)methoxy)pyridin-2(1H)-one hydrochloride] |  |  |  |  | 22.7
Cn1c(C2CC2)nc2ccc(-n3ccc(OCc4ccc(C(F)(F)F)s4)cc3=O)cc21 [Example 242, 1-(2-Cyclopropyl-1-methyl-1H-benzimidazol-6-yl)-4-((5-(trifluoromethyl)-2-thienyl)methoxy)pyridin-2(1H)-one hydrochloride] |  |  | 17.4 |  | 
Cn1c(C2CC2)nc2ccc(-n3ccc(OCc4csc(C(F)(F)F)n4)cc3=O)cc21 [Example 266, 1-(2-Cyclopropyl-1-methyl-1H-benzimidazol-6-yl)-4-((2-(trifluoromethyl)-1,3-thiazol-4-yl)methoxy)pyridin-2(1H)-one] | 73 | 50 | 20 |  | 
Cn1c(C2CC2)nc2ccc(-n3ccc(OCc4cc(C(F)(F)F)cs4)cc3=O)cc21 [Example 275, 1-(2-Cyclopropyl-1-methyl-1H-benzimidazol-6-yl)-4-((4-(trifluoromethyl)-2-thienyl)methoxy)pyridin-2(1H)-one] | 89 | 75 | 50.1 |  | 
Cc1nc2ccc(-n3ccc(OCc4ccccc4)cc3=O)cc2n1C [Example 289, 4-(Benzyloxy)-1-(1,2-dimethyl-1H-benzimidazol-6-yl)pyridin-2(1H)-one] | 100 | 48 |  |  | 
Cc1nc2ccc(-n3ccc(OCc4csc(C(F)(F)F)c4)cc3=O)cc2n1C [Example 290, 1-(1,2-Dimethyl-1H-benzimidazol-6-yl)-4-((5-(trifluoromethyl)thiophen-3-yl)methoxy)pyridin-2(1H)-one] | 90 | 77 | 43.5 |  | 

— patent US9365540B2, “Benzimidazole derivatives as MCH receptor antagonists” (Takeda Pharmaceutical Company Limited, priority 2012, dated 2016)
